{"source": "patent US20080176914A1", "about": "“CRYSTAL FORM OF 2-(3-FLUORO-4-HYDROXYPHENYL)-7-VINYL-1,3-BENZOXAZOL-5-OL” (WYETH, priority 2006, published 2008)", "assay": "Conversion of the crystal form on suspending and stirring in solvent at room temperature", "assay_type": "physicochemical", "excerpt": "The anhydrate crystal form (Form B) can be converted to other crystal forms under suitable conditions."}
{"smiles": "C=Cc1cc(O)cc2nc(-c3ccc(O)c(F)c3)oc12", "note": "[Form B, 2-(3-fluoro-4-hydroxyphenyl)-7-vinyl-1,3-benzoxazol-5-ol]", "values": [{"measurement": "crystal form obtained after suspending and stirring in ethanol", "setting": "suspended and stirred in ethanol at room temperature for three days", "value": "another anhydrate crystal form is obtained"}, {"measurement": "crystal form obtained after suspending and stirring in methanol", "setting": "suspended and stirred in methanol at room temperature for one day", "value": "another anhydrate crystal form is obtained"}, {"measurement": "crystal form obtained after suspending and stirring in water", "setting": "suspended and stirred in water at room temperature for three days", "value": "a hydrate crystal form is obtained"}]}
